Data taken from publication PMC7437366 (Biochemistry, 2010).
Like-named read-outs stand apart in the source and are kept apart here.

Assays:
[1] = tested on: AKHR-mediated ERK1/2 activation; type: cell-based, Bombyx; settings: for Dose dependence of PKC inhibitor effect on ERK1/2 activation: inhibitor 0.03 μM to 3 μM, three independent experiments
[2] = tested on: magnolol-induced lipolysis; settings: MEK inhibitor; ref [57]; cited from earlier work
[3] = tested on: adipokinetic effect of AKH; settings: M. sexta, in vivo; ref [44]; cited from earlier work
fat body of Bombyx = test: Lipolysis in the fat body of Bombyx; settings: MEK inhibitor treatment; preliminary experiment, data not shown

O=C(NCCN1CCC(n2c(=O)[nH]c3ccccc32)CC1)c1cc2cc(F)ccc2[nH]1 [FIPI]
Effect of PLD inhibitor on ERK1/2 activation ([1]; FIPI 1 μM, 1 hour, AKH 5 nM, 5 min, Fig. 4B, S1): could not block the activation of ERK1/2

COc1cccc(-c2cc(=O)c3ccccc3o2)c1N [PD98059]
Effect on magnolol-induced lipolysis [2]: inhibited

COC(=O)C1=C(C)NC(C)=C(C(=O)OC)C1c1ccccc1[N+](=O)[O-] [nifedipine]
Effect of Ca2+ channel inhibitors on adipokinetic effect of AKH [3]: effectively impair the adipokinetic effect of AKH

CN(C)CCCn1cc(C2=C(c3c[nH]c4ccccc34)C(=O)NC2=O)c2ccccc21 [GF109203X]
Dose dependence of PKC inhibitor effect on ERK1/2 activation ([1]; 1 hour, AKH 5 nM, 5 min): decrease in the activation of ERK1/2 stimulated by 5 nM AKH in a dose-dependent manner

CC(C)(C)n1nc(-c2ccc(Cl)cc2)c2c(N)ncnc21 [PP2]
Effect on AKH-induced ERK1/2 activation, Src inhibitor ([1]; PP2 10 μM, 1 h, 37°C, AKH 5 nM, 5 min, Fig. 9, S2): no effect on ERK1/2 activation

COc1ccc(CCN(C)CCCC(C#N)(c2ccc(OC)c(OC)c2)C(C)C)cc1OC (stereo not drawn) [verapamil]
Effect of Ca2+ channel inhibitors on adipokinetic effect of AKH [3]: effectively impair the adipokinetic effect of AKH

CNC(=O)[C@H](Cc1c[nH]c2ccccc12)NC(=O)[C@@H](CC(=O)NO)CC(C)C [GM6001]
Effect on AKH-induced ERK1/2 activation, MMP inhibitor ([1]; GM6001 5 μM, 1 h, 37°C, AKH 5 nM, 5 min, Fig. 9, S2): no effect on ERK1/2 activation

COC[C@H]1OC(=O)c2coc3c2[C@@]1(C)C1=C(C3=O)[C@@H]2CCC(=O)[C@@]2(C)C[C@H]1OC(C)=O [Wortmanmin, wortmannin]
Effect on AKH-induced ERK1/2 activation, PI3K inhibitor ([1]; wortmannin 1 μM, 1 h, 37°C, AKH 5 nM, 5 min, Fig. 9, S2): no effect on ERK1/2 activation

COc1ccc2c(c1)CC[C@@H]1[C@@H]2CC[C@]2(C)[C@@H](NCCCCCCN3C(=O)C=CC3=O)CC[C@@H]12 [U73122]
Effect of PLC inhibitor on ERK1/2 activation ([1]; U73122 10 μM, 1 hour, AKH 5 nM, 5 min, Fig. 4A, S1): could not block the activation of ERK1/2

COc1ccc2c(c1)c(C1=C(c3c[nH]c4ccccc34)C(=O)NC1=O)cn2CCCN(C)C [Go6983]
Effect on AKH-induced ERK1/2 phosphorylation, PKC inhibitor ([1]; Go6983 3 μM, 1 h, 37°C, AKH 5 nM, 5 min, Fig. 9): significant decrease of AKH-induced phosphorylation of ERK1/2 | Dose dependence of PKC inhibitor effect on ERK1/2 activation ([1]; 1 hour, AKH 5 nM, 5 min): decrease in the activation of ERK1/2 stimulated by 5 nM AKH in a dose-dependent manner

N#CC(=C(/N)Sc1ccccc1N)/C(C#N)=C(/N)Sc1ccccc1N [U0126]
Effect on AKH-induced ERK1/2 phosphorylation, MEK inhibitor ([1]; U0126 100 nM, 1 h, 37°C, AKH 5 nM, 5 min, Fig. 9): significant decrease of AKH-induced phosphorylation of ERK1/2 | Effect on lipolysis in the fat body of Bombyx (fat body of Bombyx): blockade of lipolysis in the fat body of Bombyx

COc1cc2ncnc(Nc3cccc(Cl)c3)c2cc1OC [AG1478]
Effect on AKH-induced ERK1/2 activation, EGFR inhibitor ([1]; AG1478 1 μM, 1 h, 37°C, AKH 5 nM, 5 min, Fig. 9, S2): no effect on ERK1/2 activation

CCCCCCCCCCCCCCCCCCOCC(COP(=O)([O-])OCC[N+](C)(C)C)OC (stereo not drawn) [ET-18-OCH3]
Effect of PLC inhibitor on ERK1/2 activation ([1]; ET-18-OCH3 100 μM, AKH 5 nM, S1): could not block the activation of ERK1/2

O=S(=O)(NCCNC/C=C/c1ccc(Br)cc1)c1cccc2cnccc12 [H89]
Dose dependence of inhibition of ERK1/2, PKA inhibitor ([1]; H89 1 μM to 20 μM, 1 hour, AKH 5 nM, 5 min, mean ± S.E.M (n = 3)): Inhibition of ERK1/2 is dependent on the concentration of H89 | Effect on ERK1/2 phosphorylation, PKA inhibitor ([1]; H89 10 μM, 1 hour preincubation, 37°C, AKH 0.1 nM to 10 nM, 5 min, mean ± S.E.M (n = 3)): significantly decreased ERK1/2 phosphorylation | Effect on AKH-induced ERK1/2 phosphorylation, PKA inhibitor ([1]; H89 20 μM, 1 h, 37°C, AKH 5 nM, 5 min, Fig. 9): significant decrease of AKH-induced phosphorylation of ERK1/2
